Data as given in a melting point compilation (Tetko et al.).

| Structure (SMILES) | melting point [°C] |
| --- | --- |
| CCS(=O)(=O)NC(C)C(=O)O (stereo not drawn) | 129 to 131 |
| NNC(=O)CN1CCCC1=O | 99 to 101 |
| CC(N)C(O)c1c(F)cccc1F (stereo not drawn) | 119 to 121 |
| O=S(=O)(Cl)c1cccc2c1OCCO2 | 74 to 76 |
| COc1coc(CO)cc1=O | 163 to 165 |
| O=C(c1ccc(Br)cc1)C1CCOCC1 | 99 to 101 |
| Cc1cc(C)c(S(=O)(=O)Cl)cc1C(=O)O | 189 to 191 |
| CN(C)C1=CC(=C(N)N=O)C=CN1 | 129 to 131 |
| O=C(O)c1ccc(N2CCOCC2)c([N+](=O)[O-])c1 | 186 to 188 |
| Cc1ccc(C(C)NC(=O)CCl)cc1C (stereo not drawn) | 196 to 198 |
| CCOC(=O)C1CCN(S(=O)(=O)Cl)CC1 | 38 to 40 |
| CCC(C(=O)O)N1CCCC1=O (stereo not drawn) | 156 to 158 |
| COC(=O)C(Cl)c1cc(Cl)cc(Cl)c1 (stereo not drawn) | 56 to 58 |
| CC(=O)c1cc(Br)c(F)cc1O | 77 to 79 |
| Cn1cc(C(N)=S)cn1 | 189 to 191 |
| Cn1c(S)nnc1CO | 189 to 191 |
| O=C(CC(=O)C(F)(F)F)c1ccncc1 | 255 to 257 |
| O=C(NC=C(Cl)Cl)c1ccc(F)cc1 | 69 to 71 |
| O=Cc1cc(Cl)cc2c1OCC2 | 85 to 87 |
| CC(=O)c1c(Cl)nc2sccn12 | 159 to 161 |
| CC(O)C1CCNCC1 (stereo not drawn) | 68 to 70 |
| NC(=O)C1CCCC1 | 173 to 175 |

| Structure (SMILES) | melting point [°C] |
| --- | --- |
| Cc1nnc(S)n1C1CC1 | 132 to 134 |
| CC(C)C(Br)C(=O)NC(C)(C)C (stereo not drawn) | 135 to 137 |
| C=CCN=c1nn[nH]n1C | 66 to 68 |
| O=C1OCCc2cnc3nc(C(F)(F)F)nn3c21 | 185 to 187 |
| CC(=O)Nc1cc(F)c(S(=O)(=O)Cl)cc1Cl | 163 to 165 |
| NC(=O)c1ccc2[nH]cc(C3CCNCC3)c2c1 | 149 to 151 |
| COC(=O)c1ccc(C)c(NC(=O)OCC(F)(F)F)c1 | 121 to 123 |
| CCNc1nnc(S)s1 | 141 to 143 |
| Cn1c(CO)nnc1C1CCC1 | 133 to 135 |
| COCCn1nnc(C(=O)O)c1C(F)(F)F | 55 to 57 |
| CN1CCN(c2ccc(N)c(C(F)(F)F)c2)CC1 | 87 to 89 |
| CC(=O)c1c[nH]c(C(=O)N2CCCC(CO)C2)c1 (stereo not drawn) | 146 to 148 |
| CC(C)(C)OC(=O)N1CCN2C(=O)NCC2C1 (stereo not drawn) | 218 to 220 |
| CC(C)NC(=O)CC1(C(=O)O)CCCC1 | 139 to 141 |
| CC(C)C(C(=O)O)N1CCCC1=O (stereo not drawn) | 130 to 132 |
| CNCc1cn(C)c(=O)n(C)c1=O | 128 to 130 |
| CC(C)(C)OC(=O)Nc1cc(C(=O)O)ccc1F | 177 to 179 |
| CC(C)(C)OC(=O)Nc1ccoc1 | 139 to 141 |
| O=C(O)c1cc2cc(Cl)c(Cl)cc2[nH]1 | 321 to 323 |
| N#CCC1=NC(=O)CS1 | 183 to 185 |
| CN1CCc2nc(N)sc2C1 | 168 to 170 |
| Nc1nnc(-c2ccc(Cl)cc2Cl)[nH]1 | 228 to 230 |

| Structure (SMILES) | melting point [°C] |
| --- | --- |
| O=C(O)c1csc(-c2cc(Br)cs2)n1 | 229 to 231 |
| CN(C(=O)C(C)(C)C)c1ccc(O)cc1 | 189 to 191 |
| CCOC(=O)c1cnccn1 | 48 to 50 |
| CCC(=O)CNC(=O)CCl | 81 to 83 |
| CC(C)CC(N)C(=O)N1CCNC(=O)C1 (stereo not drawn) | 162 to 164 |
| O=C(CCl)N1CCOC1=O | 53 to 55 |
| CNC(=O)OCC(F)(F)F | 35 to 37 |
| NC(=O)c1ccc(N2CCCCC2)c(N)c1 | 168 to 170 |
| CCOC(=O)c1c(NC(=O)CCl)sc(C(C)=O)c1C | 176 to 178 |
| Cc1oc(-c2cnn(C)c2)nc1C(=O)O | 249 to 251 |
| O=C(O)CCn1cnc2sc3c(c2c1=O)CCCC3 | 193 to 195 |
| CCOC(=O)c1sc(-c2ccc(OC)c(OC)c2)cc1N | 120 to 122 |
| NC(=S)CCN1CCCCC1 | 104 to 106 |
| O=C(O)Cc1cc(Cl)c2c(c1)OCCCO2 | 166 to 168 |
| COC(=O)c1c(C)[nH]c(C(=O)CCl)c1C | 166 to 168 |
| O=C(c1cc(Cl)c[nH]1)N1CCCNCC1 | 116 to 118 |
| O=[N+]([O-])c1cnc(Br)c(Br)c1 | 76 to 78 |
| CCOC(=O)c1ccn[nH]1 | 159 to 161 |
| Clc1cc2c(cc1Cl)OCO2 | 71 to 73 |
| O=C(O)C1(S(=O)(=O)c2ccc(Cl)cc2)CCCC1 | 83 to 85 |

The next lines start with the values.

| melting point [°C] | Structure (SMILES) |
| --- | --- |
| 134 to 136 | O=C1CCc2cc(F)ccc2N1 |
| 180 to 182 | O=C(O)CNS(=O)(=O)c1ccc2ccccc2c1 |
| 181 to 183 | O=c1[nH]c2ccccc2n1C1=CCCCC1 |
| 175 to 177 | CC(C)(C)c1ccc(C(=O)Nc2ccccc2N)cc1 |
| 137 to 139 | CC(NC(=O)c1ccccc1Cl)C(=O)O (stereo not drawn) |
| 213 to 215 | Nc1ccc(N)c(S(=O)(=O)Nc2ccccc2Cl)c1 |
| 266 to 268 | Cn1cnnc1-c1cncc(O)c1 |
| 235 to 237 | Cc1nc2ccccc2n1CCN |
| 141 to 143 | O=C(O)C=Cc1ccc(OCc2ccccc2)cc1 |
| 153 to 155 | CC(C)(C)OC(=O)Nc1ccc(CC(=O)O)cc1 |
| 66 to 68 | Cc1ccc(C#N)c(OC2CCCC2)c1 |
| 73 to 75 | O=C(CCl)NCC(c1ccc(Cl)cc1Cl)c1c[nH]c2ccccc12 (stereo not drawn) |
| 169 to 171 | CC(N)(C(=O)O)c1ccccc1 (stereo not drawn) |
| 172 to 176 | O=C(O)c1ccc2c(c1)C(=O)N(Cc1ccco1)C2=O |
| 260 to 262 | O=C(O)C=Cc1cncc2ccccc12 |
| 74 to 76 | N#Cc1ccnc(OCc2ccccc2)c1 |
| 215 to 217 | Cc1cccc(-n2nc(C(=O)O)cc2-c2ccc(-c3ccccc3)cc2)c1 |
| 233 to 235 | NS(=O)(=O)c1ccc(O)c(C(=O)O)c1 |
| 111 to 113 | NNC(=O)Cc1ccccn1 |
| 206 to 208 | ON=Cc1nc2cc(Cl)ccc2o1 |
| 213 to 216 | N#Cc1ccccc1Sc1ccccc1C(=O)O |

| melting point [°C] | Structure (SMILES) |
| --- | --- |
| 132 to 134 | COc1ccc(CC(=O)NN)cc1 |
| 166 to 168 | Cc1ccc(I)cc1C(=O)O |
| 44 to 46 | CCOC(=O)COc1ccccc1C(C)=O |
| 104 to 106 | Oc1ccc2c(c1)OCC2O (stereo not drawn) |
| 230 to 232 | Cc1c(C(=O)O)sc2cccc(F)c12 |
| 79 to 81 | Cc1cnn(-c2ccccc2)c1N |
| 62 to 64 | c1cncc(NCc2ccsc2)c1 |
| 52 to 54 | CC(N)c1ccc(OCc2ccc(F)cc2)cc1 (stereo not drawn) |
| 84 to 86 | N#Cc1ccc(NCCO)cc1 |
| 146 to 148 | Sc1nnc(NCc2ccccc2)s1 |
| 87 to 89 | O=[N+]([O-])c1ccc(COc2ccccc2)cc1 |
| 73 to 75 | O=C(O)CSc1ccc(F)cc1F |
| 169 to 171 | CCOC(=O)c1ccc(C#N)c(S)n1 |
| 68 to 70 | N#Cc1cc2ccccn2c1 |
| 83 to 85 | COc1ccc2cncnc2c1 |
| 152 to 154 | COc1ccc2c(c1)OCC(C(=O)O)C2 (stereo not drawn) |
| 232 to 234 | Cc1c[nH]c(=O)n1-c1cccc(N)c1 |
| 85 to 87 | CCOc1cc(C=O)ccc1OCCOc1ccc(F)cc1 |
| 129 to 131 | CC(=O)N1CCc2cc(C(=O)C(C)Cl)ccc21 (stereo not drawn) |
| 135 to 137 | Cc1c(NCC(C)(C)C)cccc1C(=O)O |
| 134 to 136 | Cc1ccc(S(=O)(=O)OI(O)c2ccccc2)cc1 |

| melting point [°C] | Structure (SMILES) |
| --- | --- |
| 159 to 161 | Nc1ccc2oc(=O)ccc2c1 |
| 141 to 143 | COc1ccc(-c2nc(CO)no2)cc1 |
| 102 to 104 | Oc1cccc(Oc2ccncn2)c1 |
| 54 to 56 | COCc1nc2cc(N)ccc2o1 |
| 100 to 102 | O=C(CCl)NCc1ccccc1COc1ccccc1 |
| 67 to 69 | O=C(O)C1(c2cccc(F)c2)CCC1 |
| 128 to 130 | NNC(=O)Cc1cn2ccccc2n1 |
| 69 to 71 | O=C(O)c1ccc(F)c(COCC2CC2)c1 |
| 53 to 55 | CNS(=O)(=O)c1ccccc1N |
| 104 to 106 | COC(=O)C(=O)CC(=O)c1ccc(OC)cc1 |
| 157 to 159 | O=c1occc2cccnc12 |
| 232 to 234 | Cc1cc(C(=O)O)c2c(-c3ccco3)noc2n1 |
| 158 to 160 | NC(=O)Cc1ccccc1F |
| 179 to 181 | NS(=O)(=O)c1cccc2ncccc12 |
| 126 to 128 | NNC(=O)CNc1ccccc1 |
| 253 to 255 | NC(=O)c1ccccc1Oc1ncccc1C(=O)O |
| 79 to 81 | O=C(c1ccccc1)c1ncccn1 |
| 104 to 106 | CCOC(=O)c1cnn(-c2nccs2)c1N |
| 195 to 197 | Sc1nnc(-c2ccccc2Br)[nH]1 |
| 188 to 190 | Cn1cc(-c2ccc(Cl)nn2)cn1 |
| 64 to 66 | Cc1cc(Br)ncc1[N+](=O)[O-] |

| melting point [°C] | Structure (SMILES) |
| --- | --- |
| 78 to 80 | O=C1CN(C(c2ccccc2)c2ccccc2)C1 |
| 185 to 187 | O=C(O)COc1ccc(C(=O)c2ccc(Cl)cc2)cc1 |
| 90 to 92 | Nc1ccc(Oc2ccc(C(F)(F)F)cn2)c(F)c1 |
| 224 to 226 | Nc1ccc(Sc2nc3ccccc3[nH]2)cc1 |
| 105 to 107 | N#Cc1ccc(F)c(CS(=O)(=O)Cl)c1 |
| 129 to 132 | C=CCN1C(=O)C(=NN)c2ccccc21 |
| 192 to 194 | O=C1COc2cc(Br)ccc2N1 |
| 183 to 185 | O=CNc1cc([N+](=O)[O-])ccc1Cl |
| 46 to 48 | C#CCOc1ccc(NC)cc1 |
| 242 to 244 | O=C(Nc1sc2c(c1C(=O)O)CCC2)c1ccco1 |
| 134 to 136 | N#CCC(=O)c1ccc2c(c1)OCO2 |
| 55 to 57 | O=S(=O)(Cl)c1ccc(OCC(F)(F)F)cc1 |
| 93 to 95 | Cc1ccccc1C(C)(C)C(=O)O |
| 97 to 99 | CC(C)Nc1ccc(Br)cc1[N+](=O)[O-] |
| 57 to 59 | Cc1cnn(-c2ccc(N)cc2F)c1 |
| 126 to 128 | CN(C)C(=O)c1cccc(O)c1 |
| 197 to 199 | O=C(O)CC1CCCN1Cc1nc2ccccc2c(=O)[nH]1 (stereo not drawn) |
| 119 to 121 | Cc1cc(Br)c(C(=O)O)cn1 |
| 155 to 157 | Nc1ccc(-c2nnco2)cc1 |
| 105 to 107 | CC(C)(C)OC(=O)Nc1ccccc1N |
| 95 to 100 | N#Cc1ccc(Cl)cc1[N+](=O)[O-] |
